Data reported in article PMC9416494, “Cinnamaldehyde and Curcumin Prime Akt2 for Insulin-Stimulated Activation” (Nutrients, 2022).
Like-named read-outs stand apart in the source and are kept apart here.

Key:
ERK1/2 = assay: cIEF immunoassay of ERK1/2 phosphorylation; format: cell-based, human; details: following treatment
Method: (§1) Existing growth media of primary human subcutaneous preadipocytes were replaced with new growth media premixed with treatment compounds and incubated at 37 °C and 5% CO2 for 30 min prior to the collection of total cell extracts. The final concentrations of treatment compounds were as follows: insulin (100 nM, Humulin R, Eli Lilly, Indianapolis, IN, USA), cinnamaldehyde (40 µM, cat. no. W228613, Sigma Aldrich, St. Louis, MO, USA), curcumin (20 µM, cat. no. C7727, Sigma Aldrich, St. Louis, MO, USA), okadaic acid (5 nM, cat. no. ab120375, Cambridge, MA, USA), and PTP1Bi (4 µM, cat. no. 15782, Cayman Chem, Ann Arbor, MI, USA). The concentrations of treatment compounds were selected based on their ability to induce maximal effects on the PTM profile of Akt2, which were experimentally determined.
Cell lysates in separation gradients were loaded into 384-well assay plates (cat. no. 040-663, ProteinSimple, Santa Clara, CA, USA), which were preloaded with primary and secondary antibodies and chemiluminescent substrates. Charge-based protein separation and detection in individual capillaries were performed using the default protocols of the NanoPro 1000 system (ProteinSimple, Santa Clara, CA, USA). HSP70 was used as the loading control. […]

Akt3 = assay: cIEF immunoassay of Akt3 in primary human subcutaneous preadipocytes; format: cell-based; details: for effect on Akt3 cIEF electropherogram: 30 min; for effect on insulin-stimulated phosphorylation of Akt3: with insulin
Method: (§2) Primary human subcutaneous preadipocytes were obtained from Zen-Bio (Cat. No. SP-F-1, Lot #L031219A, Durham, NC, USA) and maintained at 37 °C and 5% CO2 in growth medium comprising Minimum Essential Medium α (cat. no. 12571063, Thermo Fisher Scientific, Waltham, MA, USA) supplemented with 10% fetal bovine serum, 100 units/mL penicillin, and 100 µg/mL streptomycin. […] The donor was undergoing elective surgery and signed an Institutional Review Board validated donor consent form that specifically lists both the intended uses for non-clinical research and confirms the procedures for processing the samples are Standard Operating Procedure managed Good Laboratory Practices protocols in compliance with ethical regulations. All samples were collected and processed in the United States.
as §1
(§3) Approximately one million cells were incubated on ice for 10 min with 60 µL of lysis buffer (cat. no. 040-764, ProteinSimple, Santa Clara, CA, USA), sonicated 4 times for 5 s each, mixed by rotation for 2 h at 4 °C, and centrifuged at 12,000 rpm in an Eppendorf 5430R microfuge for 20 min at 4 °C. The supernatant was collected as the cell lysate. The total protein concentration in the cell lysate was determined with a Bradford protein assay and adjusted to a final concentration of 0.3 µg/µL with separation gradients (cat. no. Premix G2, pH 5–8, ProteinSimple, Santa Clara, CA, USA) for charge-based cIEF immunoassays.
(§4) Cell lysates in separation gradients were loaded into 384-well assay plates (cat. no. 040-663, ProteinSimple, Santa Clara, CA, USA), which were preloaded with primary and secondary antibodies and chemiluminescent substrates. Charge-based protein separation and detection in individual capillaries were performed using the default protocols of the NanoPro 1000 system (ProteinSimple, Santa Clara, CA, USA). HSP70 was used as the loading control. All cIEF immunoassays were performed in triplicate for each protein, and triplicate experiments were performed for each treatment condition, producing nine repeated measurements per protein analyte.
(§5) Protein abundance was quantified using the Compass software from ProteinSimple (Santa Clara, CA, USA) and normalized with that of HSP70 for cIEF immunoassays or β-actin for capillary Western assays. HSP70 and β-actin served as loading controls.

Akt1 = assay: cIEF immunoassay of Akt1 in primary human subcutaneous preadipocytes; format: cell-based; details: for effect on Akt1 cIEF electropherogram: 30 min; for effect on insulin-stimulated phosphorylation of Akt1: with insulin, cIEF of p-Akt1 (S473) and standard Western
Method: as §2, §1, §3, §4, §5

pan-Akt [1] = assay: cIEF immunoassay of pan-Akt phosphoisoforms in primary human subcutaneous preadipocytes; format: cell-based; details: 30 min, versus untreated control
Method: as §2, §1, §3, §4, §5

PTP1B = target: T1, PTP1B (Homo sapiens, UniProt P18031); assay: Protein tyrosine phosphatase assay (malachite green), recombinant PTP1B; format: biochemical; details: 30 min, room temperature, read-out: IC50, PTP1B inhibition
T1 construct: purchased Cayman Chem 10010896
T1 sequence (P18031 1-321 limits assumed): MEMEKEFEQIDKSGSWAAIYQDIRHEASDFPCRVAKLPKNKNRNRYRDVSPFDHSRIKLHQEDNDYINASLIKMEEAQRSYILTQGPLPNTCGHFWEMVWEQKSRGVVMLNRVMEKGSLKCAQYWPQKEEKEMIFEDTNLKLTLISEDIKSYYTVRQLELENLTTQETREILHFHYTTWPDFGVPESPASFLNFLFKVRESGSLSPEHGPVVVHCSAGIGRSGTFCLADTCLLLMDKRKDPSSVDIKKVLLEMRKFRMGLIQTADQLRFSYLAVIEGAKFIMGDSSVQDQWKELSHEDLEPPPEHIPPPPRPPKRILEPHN
Method: (§6) Ser/Thr phosphatase assay kit (cat. no. 17-127, Millipore, Temecula, CA, USA) was used to detect PP2A activity by dephosphorylation of the phosphopeptide R-K-pT-I-R-R using malachite green detection. Likewise, a protein tyrosine phosphatase assay kit (cat. no. 17-125, Millipore, Burlington, MA, USA) was used to detect PTP1B activity by dephosphorylation of the phosphopeptide R-R-L-I-E-D-A-E-pY-A-A-R-G using malachite green detection. Experimental procedures were performed according to the manufacturer’s protocols. Recombinant PP2A (cat. no. 10011237, Cayman Chem, Ann Arbor, MI, USA) and PTP1B (cat. no. 10010896, Cayman Chem, Ann Arbor, MI, USA) were used. Dephosphorylation reactions were performed at room temperature for 30 min in the presence of serially diluted okadaic acid, PTP1Bi, cinnamaldehyde, or curcumin. The reactions were terminated by the addition of […] malachite green solution and allowed color development to proceed for 15 min at room temperature. Phosphatase activities were measured using absorbance at 650 nm in a microtiter plater reader (Synergy 2, BioTek, Winooski, VT, USA).

Akt2 = assay: cIEF immunoassay of Akt2 and p-Akt2 (S474) in primary human subcutaneous preadipocytes; format: cell-based; details: for change of Akt2 cIEF electropherogram versus untreated control / change of Akt2 cIEF electropherogram versus insulin alone / increase of p-Akt2 (S474) compared to insulin treatment alone / p-Akt2 (S474) induction: 30 min; for change of Akt2 cIEF electropherogram versus untreated control: insulin 100 nM; for change of Akt2 cIEF electropherogram versus untreated control / increase of p-Akt2 (S474) compared to insulin treatment alone / p-Akt2 (S474) induction: cinnamaldehyde 40 µM, curcumin 20 µM; for change of Akt2 cIEF electropherogram versus untreated control / p-Akt2 (S474) induction: okadaic acid 5 nM, PTP1Bi 4 µM; for change of Akt2 cIEF electropherogram versus insulin alone / increase of p-Akt2 (S474) compared to insulin treatment alone: together with insulin 100 nM; for p-Akt2 (S474) induction: treatment without added insulin (insulin itself 100 nM)
Method: as §2, §1, §3, §4, §5

PP2A = target: T2, PP2A (Homo sapiens, UniProt P67775); assay: Ser/Thr phosphatase assay (malachite green), recombinant PP2A; format: biochemical
T2 construct: purchased Cayman Chem 10011237
T2 sequence (P67775 1-308 limits assumed): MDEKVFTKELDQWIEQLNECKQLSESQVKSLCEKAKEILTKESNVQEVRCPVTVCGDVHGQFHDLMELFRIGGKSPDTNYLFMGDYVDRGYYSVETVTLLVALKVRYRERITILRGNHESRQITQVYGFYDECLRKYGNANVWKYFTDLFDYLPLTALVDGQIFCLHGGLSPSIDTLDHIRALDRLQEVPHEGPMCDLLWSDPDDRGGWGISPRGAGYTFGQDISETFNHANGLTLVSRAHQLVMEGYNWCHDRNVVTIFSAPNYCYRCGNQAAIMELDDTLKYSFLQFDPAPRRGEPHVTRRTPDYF
Method: as §6

pan-Akt [2] = assay: Capillary Western immunoassay of p-Akt in primary human subcutaneous preadipocytes; format: cell-based; details: insulin 30 min
Method: as §2, §1
The total protein concentration in the cell lysate was determined with a Bradford protein assay and adjusted to a final concentration of 0.4 µg/µL with denaturing buffers (cat. no. PS-ST01EZ or PS-ST03EZ, ProteinSimple, Santa Clara, CA, USA) for size-based Western immunoassays. […]
Protein abundance was quantified using the Compass software from ProteinSimple (Santa Clara, CA, USA) and normalized with that of HSP70 for cIEF immunoassays or β-actin for capillary Western assays. […]

[3] = recombinant PP2A, 30 min, room temperature, read-out: IC50, PP2A inhibition

O=C/C=C/c1ccccc1 [cinnamaldehyde]
ERK1/2 phosphorylation (ERK1/2): increased ERK1/2 phosphorylation | effect on Akt3 cIEF electropherogram (Akt3): neither cinnamaldehyde or curcumin had any observable effect | effect on insulin-stimulated phosphorylation of Akt3 (Akt3): no observable effect | effect on Akt1 cIEF electropherogram (Akt1): neither cinnamaldehyde or curcumin had any observable effect | effect on insulin-stimulated phosphorylation of Akt1 (Akt1): promote insulin-stimulated phosphorylation of Akt1 | abundance of p-Akt (S124) at pI 5.74 (pan-Akt [1]): increased the abundance | abundance of p-Akt (S246) at pI 5.74 (pan-Akt [1]): increased the abundance | abundance of p-Akt (Y475) at pI 5.74 (pan-Akt [1]): increased the abundance | effect on p-Akt (T308) (pan-Akt [1]): no observable effect | p-Akt (T450) phosphorylation (pan-Akt [1]): increased phosphorylation at the T450 residue | IC50 (PTP1B): ~4 µM | change of Akt2 cIEF electropherogram versus untreated control (Akt2): new peak at pI 5.41 | change of Akt2 cIEF electropherogram versus insulin alone (Akt2): induced the appearance of a new Akt2 isoform at pI 5.15 | increase of p-Akt2 (S474) compared to insulin treatment alone (Akt2): approximately 3.5 fold | p-Akt2 (S474) induction (Akt2): Neither untreated control preadipocytes or preadipocytes treated with cinnamaldehyde or curcumin had a detectable level | IC50 (PP2A; [3]): ~40 µM

COc1cc(/C=C/C(=O)CC(=O)/C=C/c2ccc(O)c(OC)c2)ccc1O [curcumin]
ERK1/2 phosphorylation (ERK1/2): increased ERK1/2 phosphorylation | effect on Akt3 cIEF electropherogram (Akt3): neither cinnamaldehyde or curcumin had any observable effect | effect on insulin-stimulated phosphorylation of Akt3 (Akt3): no observable effect | effect on Akt1 cIEF electropherogram (Akt1): neither cinnamaldehyde or curcumin had any observable effect | effect on insulin-stimulated phosphorylation of Akt1 (Akt1): promote insulin-stimulated phosphorylation of Akt1 | abundance of p-Akt (S124) at pI 5.74 (pan-Akt [1]): increased the abundance | abundance of p-Akt (S246) at pI 5.74 (pan-Akt [1]): increased the abundance | abundance of p-Akt (Y475) at pI 5.74 (pan-Akt [1]): increased the abundance | effect on p-Akt (T308) (pan-Akt [1]): no observable effect | p-Akt (T450) phosphorylation (pan-Akt [1]): increased phosphorylation at the T450 residue | IC50 (PTP1B): ~25 µM | change of Akt2 cIEF electropherogram versus untreated control (Akt2): new peak at pI 5.41 | change of Akt2 cIEF electropherogram versus insulin alone (Akt2): induced the appearance of a new Akt2 isoform at pI 5.15 | increase of p-Akt2 (S474) compared to insulin treatment alone (Akt2): approximately 3.5 fold | p-Akt2 (S474) induction (Akt2): Neither untreated control preadipocytes or preadipocytes treated with cinnamaldehyde or curcumin had a detectable level | IC50 (PP2A; [3]): ~20 µM

insulin [reference compound]
effect on Akt3 cIEF electropherogram (Akt3): induced the appearance of new Akt2 and Akt3 isoforms at low pI values | effect on Akt1 cIEF electropherogram (Akt1): no observable effect | change of Akt2 cIEF electropherogram versus untreated control (Akt2): pI 5.20 and 5.30 | p-Akt2 (S474) induction (Akt2): induced the appearance of p-Akt2 (S474) | abundance of p-Akt (S473) (pan-Akt [2]): increased the abundance | abundance of p-Akt (T308) (pan-Akt [2]): increased the abundance | abundance of p-Akt (T450) (pan-Akt [2]): increased the abundance

O=c1cc(N2CCOCC2)oc2c(-c3ccccc3)cccc12 [LY294002, reference compound]
effect on cinnamaldehyde or curcumin-induced phosphorylation of Akt2 (Akt2; PI3K inhibitor with cinnamaldehyde or curcumin): unable to inhibit | effect on insulin-stimulated phosphorylation of Akt2 (Akt2; PI3K inhibitor with insulin): abrogates

C=C1[C@@H](O)[C@@H]2O[C@]3(CC[C@H](/C=C/[C@@H](C)[C@@H]4CC(C)=C[C@@]5(O[C@H](C[C@@](C)(O)C(=O)O)CC[C@H]5O)O4)O3)CC[C@H]2O[C@@H]1[C@@H](O)C[C@H](C)[C@H]1O[C@@]2(CCCCO2)CC[C@H]1C [okadaic acid, reference compound]
change of Akt2 cIEF electropherogram versus untreated control (Akt2): induced the appearance of a new Akt2 isoform at pI 5.20 | p-Akt2 (S474) induction (Akt2): Neither okadaic acid nor PTP1Bi treatment individually was capable of inducing | IC50 (PP2A): ~0.0005 µM
